Experimental data from patent publication US20240261292A1, “COMBINATION THERAPIES” (Janssen Pharmaceutica NV, priority 2021, published 2024).
Read-outs that look alike come from different tables or passages of the source.

What was measured:
MOLM-13 tumors [1] = conditions: established MOLM-13 tumors, NSG mice, 4 weeks; Azacitidine 2 mg/kg ip QD × 7; Compound A1 10 mg/kg po QD × 28
Description: 11) Efficacy of Menin-MLL Inhibitor in Combination with Azacitidine, in MOLM-13 (KMT2A-r) IV Model in NSG Mice
Each mouse received an injection of 1×10^5 MOLM-13 cells, and all other parameters were conducted as described for experiment (10).

OCI-AML3 tumors = conditions: established OCI-AML3 tumors, NSG mice, 4 weeks; Azacitidine 2 mg/kg ip QD × 7; Compound A1 30 mg/kg po QD × 28
Description: For survival assessment, results were plotted as the percentage survival against days post tumor implant. Negative clinical signs and/or ≥20% body weight loss was used as a surrogate endpoint for death. Median survival was determined utilizing Kaplan-Meier survival analysis. The percent increased life span (ILS) was calculated as: ((median survival day of treated group—median survival day of control group)/median survival day of control group)×100. Animals failing to reach the surrogate endpoint due to adverse clinical signs (such as ulcerated tumors, body weight loss, etc.) or death unrelated to treatment were censored for the survival assessment.

[2] = Mouse PK (in vivo T1/2 and oral bioavailability); conditions: male, CD-1, mouse, in vivo, fasted male CD-1 mice, formulating agent: A HP-β-CD, A3 Pyrogen free water
Description: 3) Mouse PK (In Vivo T1/2 and Oral Bioavailability)
In vivo pharmacokinetics (PK) were assessed in fasted male CD-1 mice (age 6-8 weeks) following a single intravenous (IV, 0.5 or 1.0 mg/kg administered at 2.5 ml/kg) or oral (PO, 5 mg/kg administered at 10 ml solution/kg) dose of test article formulated in a 20% (w:vol) HP-β-CD solution or in Pyrogen free water.
Plasma and/or whole blood samples were collected from the dorsal metatarsal vein at desired timepoints via serial capillary microsampling (approx. 0.03 mL) using EDTA as an anticoagulant. Concentrations of compound in the plasma and blood samples were analyzed using a qualified LC-MS/MS method. In silico analysis of main pharmacokinetic parameters was performed using WinNonlin (Phoenix™, version 6.1) or similar software.)

hERG potassium channel = hERG potassium channel (Homo sapiens (Human), UniProt Q12809); experiment: Membrane potassium current IKr in hERG transfected CHO cells (Protocol 1, QPatch); assay type: cell-based; conditions: Protocol 1, CHO cells
hERG potassium channel, sequence (Q12809 whole entry): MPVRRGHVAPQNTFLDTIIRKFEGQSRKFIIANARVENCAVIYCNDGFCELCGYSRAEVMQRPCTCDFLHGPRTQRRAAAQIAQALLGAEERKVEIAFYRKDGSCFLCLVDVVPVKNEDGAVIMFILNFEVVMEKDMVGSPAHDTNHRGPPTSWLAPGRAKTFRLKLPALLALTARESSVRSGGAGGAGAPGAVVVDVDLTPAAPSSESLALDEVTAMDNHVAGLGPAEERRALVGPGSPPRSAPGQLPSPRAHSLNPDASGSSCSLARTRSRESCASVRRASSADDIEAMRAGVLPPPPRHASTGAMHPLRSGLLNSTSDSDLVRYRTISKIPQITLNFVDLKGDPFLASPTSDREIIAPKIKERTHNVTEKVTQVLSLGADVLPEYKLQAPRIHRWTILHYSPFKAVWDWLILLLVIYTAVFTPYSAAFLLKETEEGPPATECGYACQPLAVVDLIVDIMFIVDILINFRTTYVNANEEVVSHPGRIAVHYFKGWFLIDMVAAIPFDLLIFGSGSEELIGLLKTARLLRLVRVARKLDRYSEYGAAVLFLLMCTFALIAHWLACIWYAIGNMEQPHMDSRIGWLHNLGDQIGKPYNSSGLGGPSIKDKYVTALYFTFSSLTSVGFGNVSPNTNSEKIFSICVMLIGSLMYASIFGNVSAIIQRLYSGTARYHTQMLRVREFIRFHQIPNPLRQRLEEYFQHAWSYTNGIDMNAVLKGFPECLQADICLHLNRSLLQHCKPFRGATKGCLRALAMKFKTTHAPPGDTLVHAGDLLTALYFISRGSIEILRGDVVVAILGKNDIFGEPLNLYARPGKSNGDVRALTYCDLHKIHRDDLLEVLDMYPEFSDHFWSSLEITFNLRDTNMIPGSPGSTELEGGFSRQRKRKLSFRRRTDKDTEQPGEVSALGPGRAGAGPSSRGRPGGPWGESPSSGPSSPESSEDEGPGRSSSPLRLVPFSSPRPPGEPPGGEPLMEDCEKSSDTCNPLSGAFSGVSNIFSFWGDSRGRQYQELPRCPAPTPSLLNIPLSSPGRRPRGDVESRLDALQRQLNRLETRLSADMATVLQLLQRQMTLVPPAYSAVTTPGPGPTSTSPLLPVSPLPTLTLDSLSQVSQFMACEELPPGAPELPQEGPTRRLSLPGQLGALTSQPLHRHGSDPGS
Description: Experiments were performed using CHO cells stably expressing the hERG potassium channel. Cells were grown at 37° C. and 5% CO2 in culture flasks in Ham's F12 Medium supplemented with 10% heat-inactivated fetal calf serum, hygromycin B (100 μg/ml) and geneticin (100 μg/ml). For use in the automated patch-clamp system QPatch (Sophion) cells were harvested to obtain cell suspension of single cells. […]
Patch-clamp experiments were performed in the voltage-clamp mode and whole-cell currents were recorded with an automated patch-clamp assay utilizing the QPatch system (Sophion). Current signals were amplified and digitized, stored and analyzed by using the QPatch assay software.
The holding potential was −80 mV. The hERG current (K^+-selective outward current) was determined as the maximal tail current at −40 mV after a 2 second depolarization to +60 mV. […] The effect of each concentration was determined after 5 min as an average current of 3 sequential voltage pulses. […]
Concentration/response relations were calculated by non-linear least-squares fits to the individual data points. The half-maximal inhibiting concentration (IC50) was calculated by the fitting routine.

[3] = Metabolic stability in mouse liver microsomes; assay type: in vitro ADME; conditions: liver microsomes, pH 7.4, 0.5 mg/mL microsomes protein, read-out: Mouse LM Clint
Description: 4) Metabolic Stability in Human/Mouse Liver Microsomes
The objective of this study is to measure in vitro metabolic stability of test compound(s) in human and mouse liver microsomes and provide quantitative information on the rate of metabolic turnover (i.e., determination of the apparent intrinsic clearance of test).
Test items were prepared at a stock concentration of 10 mM in DMSO. For determination of metabolic turnover, a final working solution was prepared by adding 2 μL of 10 mM DMSO stock solution for test compound or positive control compounds to 198 μL of acetonitrile (100 μM final concentration).
Incubations were performed as follows: First, liver microsomes were thawed on ice and a master solution containing liver microsomes in 100 mM PBS (phosphate-buffered saline) at pH 7.4 is prepared. Next, the liver microsomes solution was added to the incubation plates and 10 mM NADPH (Nicotinamide-adenine dinucleotide phosphate) was added (MW: 833.4 g/mol; Roche Diagnostics GmbH1, Germany. Dissolved in phosphate buffer (100 mmol/L, pH 7.4)). The mixture was mixed for 10 seconds and pre-warmed in the incubation plate at 37° C. for 10 minutes. The metabolic reaction was initiated with the addition of 5 μL of the 100 μM working solution for test compound or positive control compounds to incubation plate (final test item concentration=1 μM). The reaction final mixture should contain 1 mM NADPH, 0.5 mg/mL microsomes protein and 1 μM test compound or positive control compound in 100 mM PBS at pH 7.4. The percentage of organic solvent in incubation mixture is 1% with DMSO 0.02%.
The reaction was quenched by transferring 50 μL of the incubated mixture at selected time points into the quenching plate containing 200 μL of cold methanol. […]
All calculations were carried out using Microsoft Excel. The slope value, k, was determined by linear regression of the natural logarithm of the remaining percentage of the parent drug vs. incubation time curve.
The in vitro half-life (in vitro t1/2) was determined from the slope value: […]

MOLM-13 tumors [4] = experiment: Efficacy of menin-MLL inhibitor in combination with gilteritinib in MOLM-13 (KMT2A-r) IV model; assay type: in vivo; conditions: established MOLM-13 tumors, NSG mice, 4 weeks; Gilteritinib 10 mg/kg po QD × 28; Compound A1 10 mg/kg po QD × 28
Source text: 12) Efficacy of Menin-MLL Inhibitor in Combination with Gilteritinib, in MOLM-13 (KMT2A-r) IV Model in NSG Mice

Nc1ncn([C@@H]2O[C@H](CO)[C@@H](O)[C@H]2O)c(=O)n1 [Azacitidine]
% ILS (MOLM-13 tumors [1]): *35% | % ILS (OCI-AML3 tumors): *18%

CCN(C(=O)c1cc(F)ccc1Oc1nncnc1N1CCC2(C1)CN([C@H](CCCN(C)CCOC)C(C)C)C2)C(C)C [Compound A, (R)-N-ethyl-5-fluoro-N-isopropyl-2-((5-(2-(6-((2-methoxyethyl) (methyl)amino)-2-methylhexan-3-yl)-2,6-diazaspiro[3.4]octan-6-yl)-1,2,4-triazin-6-yl)oxy) benzamide]
half-life ([2]; iv, 1 mg/kg, single IV 0.5 or 1.0 mg/kg): 6.7 h | bioavailability ([2]; po, 5 mg/kg, single PO 5 mg/kg): 17% | IC50 (hERG potassium channel): > 30.2 µM | microsomal CLint at 1 μM [3]: < 7.5 µL/min/mg

CCc1nc(C(N)=O)c(Nc2ccc(N3CCC(N4CCN(C)CC4)CC3)c(OC)c2)nc1NC1CCOCC1 [Gilteritinib, gilteritinib]
% ILS (MOLM-13 tumors [4]): *63%
